The source of these data is patent US10752588B2 (The Broad Institute, Inc., priority 2014, dated 2020).

The structures appear in SMILES notation. ≈ marks a conversion by molar mass, not a printed value. Read-outs that look alike come from different tables or passages of the source.

Series [1] is described as follows: Solubility in PBS. The class given is physicochemical.
The nature of series [2]: Microsomal stability, rat. In kind it is in vitro ADME.
The nature of series [3]: Microsomal stability, human. In kind it is in vitro ADME.
The target in series [4] is T1, human D2R/β-arrestin (Homo sapiens (Human), UniProt P14416). Nature of the series: cell-based. To be noted: cAMP Antagonist, CHO-K1 cell line expressing human D2R/β-arrestin; quinpirole used as agonist.
Experimental: (§1) The detection reagents are then added, and the read-out is detected.
(§2) Cells were prepared for assays by growing cultures for up to 2 weeks (from about 6-20 passages). A vial of frozen cells was thawed in a water bath held at 37° C. The cells were then transferred into a 50 ml tube with 10 ml growth media. The vial was rinsed with growth media and the contents transferred to the 50 ml tube. The 50 ml tube was centrifuged at 1200 rpm for 5 minutes at room temperature. […] When the cells reached about 90% confluence (approximately 3 days between passages), the cells were passaged and used for either the agonist or antagonist assays as described below.
(§3) The cells were prepared for Gi/cAMP assays as described above. The assays were performed using a PE Lance Ultra cAMP kit (TRF0263). The cells were grown on 225 mm dishes, then washed once with 1×PBS (Cellgro) before digestion with 2.5 ml 1× Detachment reagent (DRX 92-0009) for about 2 minutes. PBS (20 ml) was then added to the plate, and the cells were transferred to a 50 ml centrifuge tube, and centrifuged at room temperature using BD Dynac III, at 1200 rpm for 5 minutes. […] The plates were then incubated at room temperature for about 30 minutes before addition of Eu-cAMP tracer solution (100, PerkinElmer) and then ULight-anti-cAMP solution (100) to each well.
The nature of series [5]: Plasma stability, mouse.
Series [6] has as its system plasma protein. The experiment in a line: Plasma protein binding, mouse. The class given is in vitro ADME. As to conditions: for fraction unbound: plasma, read-out: Plasma Protein Binding % bound.
Series [7] in a line: Microsomal stability, mouse.
The subject of series [8] is plasma protein. Nature of the series: Plasma protein binding, human. The class given is in vitro ADME. To be noted: for fraction unbound: plasma, read-out: Plasma Protein Binding % bound.
The target of series [9] is T1, human D2R/β-arrestin. The experiment in a line: β-Arrestin agonist assay (PathHunter). The class given is cell-based. As to conditions: CHO-K1 cell line expressing human D2R/β-arrestin. The gist of the method: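 Readout follows addition of Buffer:Emerald II:Galactor-Star reagent (19:5:1) to agonist-treated plates, measured as luminescence or fluorescence.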
Series [10] concerns plasma protein. The experiment in a line: Plasma protein binding, rat. In kind it is in vitro ADME. To be noted: for fraction unbound: plasma, read-out: Plasma Protein Binding % bound.
Series [11] concerns the target T1, human D2R/β-arrestin. Nature of the series: cell-based. To be noted: β-arrestin Antagonist, CHO-K1 cell line expressing human D2R/β-arrestin; quinpirole used as agonist.
Series [12] addresses T1, human D2R/β-arrestin. Nature of the series: Gi/cAMP agonist assay (Lance Ultra cAMP, Forskolin). In kind it is cell-based. As to conditions: CHO-K1 cell line expressing human D2R/β-arrestin. In short, it runs like this: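 Read-out was Lance Ultra competitive TR-FRET (Eu-cAMP tracer plus ULight-anti-cAMP) following forskolin-induced cAMP production. Before forskolin stimulation, compounds were pin-transferred onto the seeded cells for 10 min at 37 °C.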

Series [13] in a line: Plasma stability, human. In kind it is in vitro ADME.
The nature of series [14]: Plasma stability, rat. In kind it is in vitro ADME.
The target of series [15] is T1, human D2R/β-arrestin. To be noted: read-out: β-arrestin Antagonist.
Series [16] deals with T1, human D2R/β-arrestin. To be noted: read-out: cAMP Antagonist.
Experimental: as §1, §2, §3

T1 sequence (P14416 whole entry): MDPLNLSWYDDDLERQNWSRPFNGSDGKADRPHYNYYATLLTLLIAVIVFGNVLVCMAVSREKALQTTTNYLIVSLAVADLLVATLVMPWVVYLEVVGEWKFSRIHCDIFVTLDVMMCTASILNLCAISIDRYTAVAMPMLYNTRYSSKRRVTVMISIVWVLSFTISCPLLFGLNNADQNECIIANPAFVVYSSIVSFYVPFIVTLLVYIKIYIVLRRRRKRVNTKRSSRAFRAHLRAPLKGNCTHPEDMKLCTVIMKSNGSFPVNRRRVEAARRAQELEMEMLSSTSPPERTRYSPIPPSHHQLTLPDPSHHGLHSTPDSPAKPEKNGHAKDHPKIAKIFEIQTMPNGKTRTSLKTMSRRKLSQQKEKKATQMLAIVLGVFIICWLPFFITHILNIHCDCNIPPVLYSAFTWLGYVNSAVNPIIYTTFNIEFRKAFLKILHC

In turn, `O=C(NC(c1ccc(Cl)cc1)c1ccccn1)C1CCN(CCOc2ccc(F)cc2)CC1` (centres unmarked) [Compound 5] registered a solubility in [1] (aqueous buffer) of 311 µM (≈ 146 µg/mL). For the same molecule, the entries for the “Microsomal Stability: % remaining after 60 minutes” value (from here on “Microsomal Stability: % remaining”) in [2], in [3] and in [7] were 84%, 71% and 42%, respectively. Besides, the IC50 in series [4] and in [11] was 1 to 10 µM in each case. Besides, the “Plasma Stability: % remaining after 5 hours” value (from here on “Plasma Stability: % remaining”) in [5] is recorded as 90.5%; in series [13] it was 91.2%; in series [14] it was 95.2%. The fraction unbound in series [6] was 0.021; in series [8], 0.195; in series [10] it was 0.142. For the same molecule, the EC50 in series [9] was greater than 30 µM; in series [12], 10 to 30 µM.

Molecule `O=C(NC(c1ccc(Cl)cc1)c1ccccn1)C1CCN(CCOc2cc(F)ccc2F)CC1` (centres unmarked) [Compound 14] showed a solubility in [1] (aqueous buffer) of 36.1 µM (≈ 17.5 µg/mL). In addition, the figures for the “Microsomal Stability: % remaining” value in series [2], in series [3] and in series [7] were 44%, 49% and 11%, respectively. Besides, the IC50 in series [4] was greater than 30 µM; in series [11] it was 0.1 to 1 µM. Also, the “Plasma Stability: % remaining” value in [5] came out at 100%; in series [13], 96.7%; in [14], 78.2%. In addition, the values for the fraction unbound in [6], in series [8] and in series [10] were 0.015, 0.009 and 0.006, respectively. Further, the EC50 in series [9] is greater than 30 µM; in series [12] it was less than 0.1 µM.

Regarding `O=C(NC(c1ccc(Cl)cc1)c1ccccn1)C1CCN(CCOc2ccc3ccc(=O)[nH]c3c2)CC1` (centres unmarked) [Compound 15], the solubility in series [1] stood at 4.1 µM (≈ 2.12 µg/mL). For the same molecule, the “Microsomal Stability: % remaining” value in [2] turned out to be 68%; in series [3] it was 56%; in series [7], 44%. Also, the “Plasma Stability: % remaining” value in series [5] is 100%; in series [13], 96%; in series [14] it was 91%. In addition, the figures for the “Plasma Protein Binding % bound” value in series [6], in series [8] and in [10] were 97.4%, 97.7% and 99.0%, respectively. The IC50 in [15] was 10 to 30 µM; in [16] it was greater than 30 µM. For the same molecule, the EC50 in series [9] and in [12] was greater than 30 µM throughout.

With `O=C(NC(c1cccc(Cl)c1)c1ccccn1)C1CCN(CCOc2ccccc2)CC1` (centres unmarked) [Compound 23], the solubility in [1] (aqueous buffer) was found to be 225 µM (≈ 101 µg/mL). In addition, the “Microsomal Stability: % remaining” value came out at 77% in series [2], 76% in series [3] and 41% in [7]. In addition, the IC50 in series [4] and in series [11] was 0.1 to 1 µM in each case. The “Plasma Stability: % remaining” value in series [5] was 100%; in [13], 100%; in series [14] it was 96%. The fraction unbound in series [6] is 0.03; in series [8], 0.023; in series [10], 0.033. The EC50 in series [9] and in series [12] was greater than 30 µM each time.

With `O=C(NC(c1cccc(F)c1)c1ccccn1)C1CCN(CCOc2ccccc2)CC1` (centres unmarked) [Compound 26], the solubility in series [1] (aqueous buffer) amounted to 460 µM (≈ 199 µg/mL). Also, the “Microsomal Stability: % remaining” value was 96% in series [2], 84% in series [3] and 66% in series [7]. The IC50 in [4] fell in the range of 0.1 to 1 µM; in [11], 1 to 10 µM. For the same molecule, the results for the “Plasma Stability: % remaining” value in series [5], in [13] and in series [14] were 92%, 100% and 99%, respectively. In addition, the fraction unbound came to 0.057 in [6], 0.062 in [8] and 0.046 in series [10]. For the same molecule, the EC50 in series [9] and in series [12] was greater than 30 µM throughout.

On to `O=C(NC(c1ccc(C(F)(F)F)cc1)c1ccccn1)C1CCN(CCOc2ccccc2)CC1` (centres unmarked) [Compound 31, 1-(2-phenoxyethyl)-N-(pyridin-2-yl(4-(trifluoromethyl)phenyl)methyl) piperidine-4-carboxamide], for which, in series [1] (aqueous buffer), the solubility came out at 27 µM (≈ 13.1 µg/mL). Moreover, the “Microsomal Stability: % remaining” value in [2] was 55%; in series [3] it was 53%; in series [7], 57%. Moreover, the figures for the IC50 in series [4] and in series [11] were greater than 30 µM and 1 to 10 µM, respectively. Besides, the entries for the “Plasma Stability: % remaining” value in [5], in series [13] and in series [14] were 84.5%, 94.2% and 100%, respectively. Also, the fraction unbound in series [6] came to 0.026; in [8], 0.023; in series [10] it was 0.014. Further, the EC50 in [9] was greater than 30 µM; in series [12], 0.1 to 1 µM.

In turn, `O=C(NC(c1cccc(C(F)(F)F)c1)c1ccccn1)C1CCN(CCOc2ccccc2)CC1` (centres unmarked) [Compound 32, 1-(2-phenoxyethyl)-N-(pyridin-2-yl(3-(trifluoromethyl)phenyl)methyl) piperidine-4-carboxamide] showed a solubility in [1] (aqueous buffer) of 151 µM (≈ 73 µg/mL). For the same molecule, the entries for the “Microsomal Stability: % remaining” value in series [2], in series [3] and in [7] were 46%, 61% and 37%, respectively. Further, the IC50 in series [4] and in [11] was 0.1 to 1 µM throughout. Further, the “Plasma Stability: % remaining” value in series [5] is 74%; in series [13], 91%; in [14], 98%. In addition, the fraction unbound in series [6] was determined as 0.031; in series [8], 0.03; in [10] it was 0.023. Besides, the EC50 in [9] was greater than 30 µM; in series [12] it was 10 to 30 µM.

In turn, `O=C(NC(c1ccccc1)c1ccc(Cl)cc1)C1CCN(CCOc2ccccc2)CC1` (centres unmarked) [Compound 39] gave a solubility in [1] (aqueous buffer) of 3.3 µM (≈ 1.48 µg/mL). Also, the figures for the “Microsomal Stability: % remaining” value in series [2], in series [3] and in series [7] were 55%, 49% and 65%, respectively. The IC50 in series [4] and in series [11] was 0.1 to 1 µM throughout. For the same molecule, the figures for the “Plasma Stability: % remaining” value in series [5], in [13] and in series [14] were 93%, 100% and 86%, respectively. Further, the fraction unbound in [6] came to 0.02; in series [8], 0.021; in series [10] it was 0.046. Moreover, the EC50 in series [9] and in [12] was greater than 30 µM throughout.

`O=C(NC(c1ccc(Cl)cc1)c1cccc(F)c1)C1CCN(CCOc2ccccc2)CC1` (centres unmarked) [Compound 41] displayed a solubility in [1] (aqueous buffer) of less than 0.1 µM. The “Microsomal Stability: % remaining” value in [2] worked out at 78%; in [3] it was 45%; in [7], 64%. Moreover, the IC50 in [4] is 0.1 to 1 µM; in series [11] it was 1 to 10 µM. The “Plasma Stability: % remaining” value in [5] was 100%; in series [13], 100%; in series [14], 96%. The figures for the fraction unbound in [6], in [8] and in series [10] were 0.006, 0.007 and 0.014, respectively. In addition, the EC50 in series [9] and in series [12] was greater than 30 µM in each case.

As for `O=C(NC(c1ccccc1)c1ccc(F)cc1)C1CCN(CCOc2ccccc2)CC1` (centres unmarked) [Compound 45], in series [1] (aqueous buffer), the solubility was found to be 6.5 µM (≈ 2.81 µg/mL). Further, the “Microsomal Stability: % remaining” value in series [2] amounted to 59%; in series [3], 56%; in [7], 62%. The IC50 in [4] and in series [11] was less than 0.1 µM each time. The “Plasma Stability: % remaining” value in series [5] is 91%; in series [13], 95%; in [14], 85%. The fraction unbound worked out at 0.015 in [6], 0.017 in series [8] and 0.012 in [10]. Further, the EC50 in series [9] and in series [12] was greater than 30 µM throughout.

A word on the solubility: it is the dissolved amount per volume that the medium holds. Read a high solubility as much dissolved substance. By EC50 is commonly meant the concentration giving half of the maximal effect. Read a low EC50 as higher potency in that assay.
